This assay addresses hGPR40 (Homo sapiens, UniProt O14842). Nature of the assay: FDSS-based intracellular calcium assay. It counts as cell-based. Details: 3xFLAG; expressed in transfected cells. Conditions: intracellular Ca2+ response, cells expressing GPR40. How it is done: FDSS-Based Intracellular Calcium Assay
Compounds are dissolved in DMSO and diluted to desired concentrations with assay buffer and added to the cells as 3× solution (20 μL per well). Run fluorescence/luminescence reader FDSS (Hamamatsu) to read intracellular Ca^2+ response.
(A change in cytosolic calcium serves as a functional read-out for many receptors and channels.)

The EC50 is the midpoint of the concentration-response curve.

Chain of hGPR40 (O14842 whole entry): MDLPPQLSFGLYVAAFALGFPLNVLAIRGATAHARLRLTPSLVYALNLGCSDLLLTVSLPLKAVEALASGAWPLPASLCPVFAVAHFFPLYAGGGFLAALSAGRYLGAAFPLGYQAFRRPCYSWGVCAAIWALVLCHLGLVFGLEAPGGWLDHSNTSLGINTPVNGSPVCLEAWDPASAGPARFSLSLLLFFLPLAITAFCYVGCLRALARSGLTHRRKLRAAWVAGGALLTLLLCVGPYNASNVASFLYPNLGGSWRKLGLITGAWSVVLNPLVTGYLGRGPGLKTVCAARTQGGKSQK

Consider `C[C@@H]1C(C(F)(F)F)=NN(c2ccc(OC3CCN(c4ccc(Cl)cc4F)CC3)cc2)[C@H]1CC(=O)O` [Example 63, 2-((4S,5S)-1-(4-((1-(4-Chloro-2-fluorophenyl)piperidin-4-yl)oxy)phenyl)-4-methyl-3-(trifluoromethyl)-4,5-dihydro-1H-pyrazol-5-yl)acetic acid], for which the EC50 is 398 nM.
`C[C@@H]1C(C(F)(F)F)=NN(c2ccc(OC3CCN(c4cc(Cl)ccc4F)CC3)cc2)[C@H]1CC(=O)O` [Example 64, 2-((4S,5S)-1-(4-((1-(5-Chloro-2-fluorophenyl)piperidin-4-yl)oxy)phenyl)-4-methyl-3-(trifluoromethyl)-4,5-dihydro-1H-pyrazol-5-yl)acetic acid]: the EC50 turned out to be 512 nM.
For `CC(C)c1ccc(F)c(N2CCC(Oc3ccc(N4N=C(C(F)(F)F)[C@@H](C)[C@@H]4CC(=O)O)cc3)CC2)c1` [Example 66, 2-((4S,5S)-1-(4-((1-(2-Fluoro-5-isopropylphenyl)piperidin-4-yl)oxy)phenyl)-4-methyl-3-(trifluoromethyl)-4,5-dihydro-1H-pyrazol-5-yl)acetic acid] the value was 600 nM.
For `C[C@@H]1C(C(F)(F)F)=NN(c2ccc(OC3CCN(c4ccccc4)CC3)cc2)[C@H]1CC(=O)O` [Example 72, 2-((4S,5S)-4-Methyl-1-(4-((1-phenylpiperidin-4-yl)oxy)phenyl)-3-(trifluoromethyl)-4,5-dihydro-1H-pyrazol-5-yl)acetic acid] the value was 1930 nM.
For `CC(C)c1cccc(N2CCC(Oc3ccc(N4N=C(C(F)(F)F)[C@@H](C)[C@@H]4CC(=O)O)cc3)CC2)c1` [Example 73, 2-((4S,5S)-1-(4-((1-(3-Isopropylphenyl)piperidin-4-yl)oxy)phenyl)-4-methyl-3-(trifluoromethyl)-4,5-dihydro-1H-pyrazol-5-yl)acetic acid] the value was 2120 nM.
Turning to `C[C@@H]1C(C(F)(F)F)=NN(c2ccc(OC3CCN(c4ccccn4)CC3)cc2)[C@H]1CC(=O)O` [Example 74, 2-((4S,5S)-4-Methyl-1-(4-((1-(pyridin-2-yl)piperidin-4-yl)oxy)phenyl)-3-(trifluoromethyl)-4,5-dihydro-1H-pyrazol-5-yl)acetic acid], the EC50 was determined as 2610 nM.
With `C[C@@H]1C(C(F)(F)F)=NN(c2ccc(OC3CCN(c4cccnc4)CC3)cc2)[C@H]1CC(=O)O` [Example 75, 2-((4S,5S)-4-Methyl-1-(4-((1-(pyridin-3-yl)piperidin-4-yl)oxy)phenyl)-3-(trifluoromethyl)-4,5-dihydro-1H-pyrazol-5-yl)acetic acid] the figure was 7680 nM.
For `COc1ccc(Cl)c(N2CCC(Oc3ccc(N4N=C(C(F)(F)F)[C@@H](C)[C@@H]4CC(=O)O)cc3)CC2)n1` [Example 76, 2-((4S,5S)-1-(4-((1-(3-Chloro-6-methoxypyridin-2-yl)piperidin-4-yl)oxy)phenyl)-4-methyl-3-(trifluoromethyl)-4,5-dihydro-1H-pyrazol-5-yl)acetic acid] the value was 649 nM; for `COc1cc(Cl)cc(N2CCC(Oc3ccc(N4N=C(C(F)(F)F)[C@@H](C)[C@@H]4CC(=O)O)cc3)CC2)n1` [Example 78, 2-((4S,5S)-1-(4-((1-(4-Chloro-6-methoxypyridin-2-yl)piperidin-4-yl)oxy)phenyl)-4-methyl-3-(trifluoromethyl)-4,5-dihydro-1H-pyrazol-5-yl)acetic acid], 1990 nM; for `COc1cc(F)cc(N2CCC(Oc3ccc(N4N=C(C(F)(F)F)[C@@H](C)[C@@H]4CC(=O)O)cc3)CC2)n1` [Example 80, 2-((4S,5S)-1-(4-((1-(4-Fluoro-6-methoxypyridin-2-yl)piperidin-4-yl)oxy)phenyl)-4-methyl-3-(trifluoromethyl)-4,5-dihydro-1H-pyrazol-5-yl)acetic acid], 2560 nM.

The values are drawn from patent US9133163B2, “Dihydropyrazole GPR40 modulators” (Bristol-Myers Squibb Company, priority 2012, dated 2015).
